Test results reported in patent US10858316B2, “Small molecule inhibitors of the MCL-1 oncoprotein and uses thereof” (University of Maryland, Baltimore, priority 2015, dated 2020).
“And” between values parts separate entries of the source, which are not always exact repeats. Equal entries are not always repeated. Where two headings read alike, the source gives them in different places.

Legend:
[1] = target: Bcl-xL (Homo sapiens (Human), UniProt Q07817); assay: Fluorescence polarization competition assay, Bcl-xL; assay type: binding; conditions: for Ki: Ki from IC50 by Nikolovska-Coleska equation, NA = no activity, read-out: Bcl-xL Ki; for Bcl-xL Exp ΔG: ΔG from experimental Ki
Description: Fluorescence polarization experiments were conducted using a BMG PHERAstar FS multimode microplate reader equipped with two PMTs for simultaneous measurements of the perpendicular and parallel fluorescence emission. The assays were performed in black polypropylene 384-well microplate (Costar) with a final volume of 20 microliter. […] Regression analysis was carried out using Origin (OriginLab, Northampton, Mass.) to fit the data to the Hill equation (1) to determine the initial binding affinity (KD) and the IC50 in the FPCA. For the fluorescence polarization competition titrations, an equation derived by Nikolovska-Coleska et al. was used to calculate the Ki from the IC50 data.

[2] = test system: HL-60 cell line; assay: Cell viability of HL-60 cell line after treating with inhibitors for 24 hrs; assay type: cell-based, human
Excerpt: The moderate cell grow inhibition ability for the two carboxylic acid ester prodrugs 20 and 21 could be attributed to the enzymatic hydrolysis that generated a free acid molecule (13ag) to function as an Mcl-1 inhibitor in the cells.

[3] = target: T1, Mcl-1 (Homo sapiens (Human), UniProt Q07820); assay: Fluorescence polarization competition assay (FPCA), Mcl-1 / FITC-Bak BH3 peptide; assay type: binding; conditions: for Ki: read-out: Mcl-1 Ki; for Mcl-1 Exp ΔG: ΔG=−RTlnKi from experimental Ki
Summary of the method: (§1)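 Purified Mcl-1 (affinity tag cleaved, size-exclusion polished) competed against FITC-labeled Bak-BH3 peptide, read by fluorescence polarization. IC50 from Hill-equation fit; Ki derived from IC50 by the Nikolovska-Coleska equation.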

[4] = test system: A375 melanoma cells; assay: Cell proliferation / viability, CellTiter-Blue assay, A375; assay type: cell-based, human; conditions: for IC50: cell titer blue assay, read-out: IC50 inhibition of cell proliferation, A375
Description: (§2) Without being limited to any one theory, the poor efficacy in cells may be attributed to the charged carboxylic acid of 3bl.
The moderate cellular activity of ±-2 may, for instance, be due to limited cell penetration owing to the charged carboxylic acid. Thus, the acetoxymethyl ester ±-12 (R1=CH2OCOCH3) was prepared as a neutral prodrug of ±-2.

[5] = target: T1, Mcl-1; assay: 2D 1H-15N HSQC NMR with 15N-labeled Mcl-1; assay type: binding; conditions: 131 μM 15N-Mcl-1, 182 μM compound
Description: NMR spectra was collected at 25° C. with a Bruker AVANCE 800 NMR spectrometer (800.27 MHz for protons) equipped with pulsed-field gradients, four frequency channels, and triple resonance, z-axis gradient cryogenic probes. A one-second relaxation delay was used, and quadrature detection in the indirect dimensions was obtained with states-TPPI phase cycling; initial delays in the indirect dimensions were set to give zero- and first-order phase corrections of 90° and −180°, respectively. Data were processed using the processing program nmrPipe on Linux workstations. All proton chemical shifts are reported with respect to the H2O or HDO signal, taken to be 4.658 ppm relative to external TSP (0.0 ppm) at 37° C. The ^15N chemical shifts were indirectly referenced using the zero-point frequency at 37° C. of 0.10132905 for ^15N—^1H, as previously described.
All compounds used for NMR were initially suspended in 100% d6-DMSO. The NMR samples contained 131 μM ^15N-labeled Mcl-1, 182 μM compound, 20 mM HEPES, pH 6.8, 50 mM NaCl, 3 mM DTT, 20% D2O, and 5% D6-DMSO.

[6] = test system: SK-MEL-5 melanoma cells; assay: Cell proliferation, cell titer blue assay, SK-MEL-5; assay type: cell-based
Excerpt: as §2

[7] = test system: Mcl-1; assay: Fluorescence polarization competition assay (FPCA), Mcl-1 / FITC-Bak BH3 peptide; assay type: binding, human; conditions: for Exp. ΔG diff.: between Mcl-1 and Bcl-xL, positive favors Mcl-1; for Selectivity, Ki (Bcl-xL) divided by Ki (Mcl-1): Mcl-1 over Bcl-xL
Summary of the method: as §1

[8] = read-out: HL-60 IC50 0.5% FBS, 0.5% FBS
[9] = read-out: HL-60 IC50 10% FBS, 10% FBS
[10] = FPCA with FITC-Bak, Ki from IC50 by Nikolovska-Coleska equation
[11] = CellTiter-Blue assay, read-out: GI50, viability of A375 cells
[12] = read-out: IC50 inhibition of cell proliferation, SK-MEL-5

T1 sequence (Q07820 172-327): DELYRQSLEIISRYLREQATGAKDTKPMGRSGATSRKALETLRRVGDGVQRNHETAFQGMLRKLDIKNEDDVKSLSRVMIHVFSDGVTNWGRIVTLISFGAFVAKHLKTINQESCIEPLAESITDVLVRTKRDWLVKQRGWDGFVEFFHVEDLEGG
Bcl-xL, sequence (Q07817 whole entry): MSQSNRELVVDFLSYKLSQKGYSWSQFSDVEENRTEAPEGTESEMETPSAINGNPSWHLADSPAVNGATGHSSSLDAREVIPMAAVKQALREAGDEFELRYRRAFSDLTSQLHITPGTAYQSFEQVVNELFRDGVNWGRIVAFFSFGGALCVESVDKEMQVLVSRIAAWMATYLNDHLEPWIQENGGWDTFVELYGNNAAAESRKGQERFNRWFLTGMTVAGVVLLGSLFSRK

Structure (SMILES)	Ki [1]	IC50 [2, 8]	IC50 [2, 9]	Ki [3, 10]	other results
Cc1cc(Oc2ccc(S(=O)(=O)N(Cc3ccccc3)c3ccc(C(=O)O)c(O)c3)cc2)cc(C)c1Cl [LC-4-118 13cc]	1.67 ± 0.351 µM	< 7.5 µM	53.2 µM	0.659 µM and 0.629 µM	–
Cc1cc(Oc2ccc(S(=O)(=O)N3CC(C(=O)O)Cc4ccccc43)cc2)cc(C)c1Cl (racemic) [±-2]	–	–	–	0.12 ± 0.053 µM	GI50 [4, 11]: 50 µM; GI50 ([4]; read-out: GI50, viability of A375 melanoma cells): 50 µM; Mcl-1 backbone 1H-15N chemical shift perturbation on compound binding [5]: significant chemical shift changes; Ki ([3]; FPCA): 0.12 µM
CC(C)CN(c1ccc(C(=O)O)c(O)c1)S(=O)(=O)c1ccc(Oc2ccccc2)cc1 [LC-4-099 13ag]	18 ± 4.6 µM	18.5 µM	> 120 µM	5.77 µM and 5.8 µM	–
Cc1cc(Oc2ccc(N(Cc3ccccc3)S(=O)(=O)c3cc(C(=O)O)c(O)c4ccccc34)cc2)cc(C)c1Cl [Compound 3bl, 4-(N-Benzyl-N-(4-(4-chloro-3,5-dimethylphenoxy)phenyl)sulfamoyl)-1-hydroxy-2-naphthoic Acid]	0.34 ± 0.13 µM	–	–	–	IC50 ([4]; Homo sapiens, A-375): 50 µM; IC50 ([6]; Homo sapiens, SK-MEL-5, read-out: IC50 inhibition of cell proliferation, SK-MEL-5): 90 µM; Ki ([3]; FPCA): 0.031 µM
CC(C)CN(c1ccc(OC(C)C)cc1)S(=O)(=O)c1cc(C(=O)O)c(O)c2ccccc12 [Compound 3ba, 1-Hydroxy-4-(N-isobutyl-N-(4-isopropoxyphenyl)sulfamoyl)-2-naphthoic Acid]	6.08 ± 0.81 µM	–	–	0.487 µM	IC50 ([4]; Homo sapiens, A-375): 150 µM; Mcl-1 backbone 1H-15N chemical shift perturbation on compound binding [5]: perturbation of the chemical shifts
Cc1cc(Oc2ccc(S(=O)(=O)N(CC(C)C)c3ccc(O)c(C(=O)O)c3)cc2)cc(C)c1Cl [JY-5-304 18bd]	2.91 ± 0.191 µM	9.82 µM	> 120 µM	0.586 ± 0.041 µM	Ki ([3]; FPCA): 0.586 µM
COC(=O)c1cc(S(=O)(=O)N(CC(C)C)c2ccc(OC(C)C)cc2)c2ccccc2c1O [Compound 13]	–	–	–	–	IC50 [4]: ~300 µM; IC50 [6, 12]: ~300 µM; Binding affinity to Mcl-1 in vitro ([3]; FPCA): no binding affinity
Cc1cc(CCCN(Cc2ccccc2)c2ccc(C(=O)O)c(O)c2)cc(C)c1Cl [LC-5-188 35]	2.98 ± 0.406 µM	7.36 µM	88 µM	1.45 µM	–
CC(=O)OCOC(=O)c1cc(S(=O)(=O)N(CC(C)C)c2ccc(OC(C)C)cc2)c2ccccc2c1O [Compound 14]	–	–	–	–	IC50 [4]: 15 µM; IC50 [6, 12]: 15 µM; Binding affinity to Mcl-1 in vitro ([3]; FPCA): no binding affinity
COC(=O)c1ccc(N(CC(C)C)S(=O)(=O)c2ccc(Oc3ccccc3)cc2)cc1O [LC-4-131 20]	–	68.1 µM	76.4 µM	> 500 µM	–
Cc1cc(Oc2ccc(S(=O)(=O)N(CC(C)C)c3ccc(C(=O)O)c(O)c3)cc2)cc(C)c1Cl [4jc117-5 13ak]	1.63 ± 0.177 µM	–	–	0.778 ± 0.05 µM	Mcl-1 backbone 1H-15N chemical shift perturbation on compound binding [5]: R263 and T266 were both perturbed; Ki ([3]; FPCA): 0.778 µM
CC(=O)OCOC(=O)C1Cc2ccccc2N(S(=O)(=O)c2ccc(Oc3cc(C)c(Cl)c(C)c3)cc2)C1 (racemic) [±-12]	–	–	–	> 500 µM	GI50 [4, 11]: 73 µM; Ki ([3]; FPC assay): > 500 µM
CC(=O)OCOC(=O)c1ccc(N(CC(C)C)S(=O)(=O)c2ccc(Oc3ccccc3)cc2)cc1O [LC-4-141 21]	–	46.4 µM	> 120 µM	–	–
Cc1cc(Oc2ccc(S(=O)(=O)N(Cc3ccccc3)c3ccc(C(=O)NS(=O)(=O)c4ccc(NCC5CCOCC5)c([N+](=O)[O-])c4)c(O)c3)cc2)cc(C)c1Cl [LC-5-131 31]	1.61 ± 0.176 µM	9.96 µM	> 120 µM	0.8 ± 0.07 µM	Ki ([3]; FPCA): 0.8 µM
Cc1cc(Oc2ccc(N(C3CCCC3)S(=O)(=O)c3cc(C(=O)O)c(O)c4ccccc34)cc2)cc(C)c1Cl [3bk; JY-5-379]	–	–	–	–	Bcl-xL Exp ΔG [1]: -8.91 kcal/mol; Mcl-1 Exp ΔG [3]: -10.20 kcal/mol; Exp. ΔG diff. [7]: 1.29 kcal/mol
Cc1ccc(Oc2ccc(NS(=O)(=O)c3cc(C(=O)O)c(O)c4ccccc34)cc2)cc1 [Compound 3bc, 1-Hydroxy-4-(N-(4-(p-tolyloxy)phenyl)sulfamoyl)-2-naphthoic Acid]	0.84 ± 0.05 µM	–	–	0.335 µM	Selectivity, Ki (Bcl-xL) divided by Ki (Mcl-1) [7]: 2.5
O=C(O)c1cc(S(=O)(=O)Nc2ccc(Oc3cccc4ccccc34)cc2)c2ccccc2c1O [3bd; SF-5-300]	–	–	–	–	Bcl-xL Exp ΔG [1]: -9.08 kcal/mol; Mcl-1 Exp ΔG [3]: -9.66 kcal/mol; Exp. ΔG diff. [7]: 0.58 kcal/mol
Cc1cc(Oc2ccc(N(CC(C)C)S(=O)(=O)c3cc(C(=O)O)c(O)c4ccccc34)cc2)cc(C)c1Cl [Compound 3bj, 4-(N-(4-(4-Chloro-3,5-dimethylphenoxy)phenyl)-N-isobutylsulfamoyl)-1-hydroxy-2-naphthoic Acid]	0.17 ± 0.06 µM	–	–	0.08 ± 0.019 µM	Selectivity, Ki (Bcl-xL) divided by Ki (Mcl-1) [7]: 2.1
